Test results from ChEMBL document CHEMBL1201862, “PubChem BioAssay data set” (2004).
Each block holds one compound with its values, some of them ahead of it. Calls of active or inactive are those of the source.

Legend:
[1] = biological target: Peroxisome proliferator-activated receptor gamma/Nuclear receptor coactivator 3 (Homo sapiens, UniProt P37231); test: TR-FRET dose response biochemical High Throughput Screening assay for agonists of the steroid receptor coactivator 3 (SRC-3) recruitment by the peroxisome proliferator-activated receptor gamma (PPAR gamma): non-selective agonists. [Related pubchem assays: 1301 (Confirmation screen.), 1048 (Primary screen.)]; assay type: functional
[2] = biological target: Peroxisome proliferator-activated receptor gamma/Nuclear receptor coactivator 2 (Homo sapiens, UniProt P37231); test: (§1) TR-FRET dose response biochemical High Throughput Screening assay for agonists of the steroid receptor coactivator 2 (SRC-2) recruitment by the peroxisome proliferator-activated receptor gamma (PPAR gamma): non-selective agonists. [Related pubchem assays: 1297, 1032 ]; assay type: functional
[3] = biological target: Peroxisome proliferator-activated receptor gamma/Nuclear receptor coactivator 1 (Homo sapiens, UniProt P37231); test: as §1, with “1 (SRC-1)” for “2 (SRC-2)”, “assays (depositor defined):AID1300, AID1808, AID504735, AID631]” for “assays: 1297, 1032 ]”; assay type: protein assay
[4] = HIV-1 AD8 envelope cell-cell fusion blockers – cherry-pick, dose response (AID 652062); assay type: functional, cell-based;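 further: luciferase signal from cell-cell fusion driven by HIV-1 clade B AD8 Env; potency is for inhibitors of fusion seen as a drop in luminescence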
[5] = biological target: Glucose-6-phosphate 1-dehydrogenase (Homo sapiens, UniProt P11413); test: inhibition of Homo sapiens G6PD, dose series – biochemical, fluorescence, selectivity assay for P. falciparum G6PD inhibitor project, dose response (AID 504792); assay type: functional
[6] = biological target: T1, Histone-lysine N-methyltransferase NSD2 (Homo sapiens, UniProt O96028); assay type: biochemical
T1 sequence (O96028 whole entry): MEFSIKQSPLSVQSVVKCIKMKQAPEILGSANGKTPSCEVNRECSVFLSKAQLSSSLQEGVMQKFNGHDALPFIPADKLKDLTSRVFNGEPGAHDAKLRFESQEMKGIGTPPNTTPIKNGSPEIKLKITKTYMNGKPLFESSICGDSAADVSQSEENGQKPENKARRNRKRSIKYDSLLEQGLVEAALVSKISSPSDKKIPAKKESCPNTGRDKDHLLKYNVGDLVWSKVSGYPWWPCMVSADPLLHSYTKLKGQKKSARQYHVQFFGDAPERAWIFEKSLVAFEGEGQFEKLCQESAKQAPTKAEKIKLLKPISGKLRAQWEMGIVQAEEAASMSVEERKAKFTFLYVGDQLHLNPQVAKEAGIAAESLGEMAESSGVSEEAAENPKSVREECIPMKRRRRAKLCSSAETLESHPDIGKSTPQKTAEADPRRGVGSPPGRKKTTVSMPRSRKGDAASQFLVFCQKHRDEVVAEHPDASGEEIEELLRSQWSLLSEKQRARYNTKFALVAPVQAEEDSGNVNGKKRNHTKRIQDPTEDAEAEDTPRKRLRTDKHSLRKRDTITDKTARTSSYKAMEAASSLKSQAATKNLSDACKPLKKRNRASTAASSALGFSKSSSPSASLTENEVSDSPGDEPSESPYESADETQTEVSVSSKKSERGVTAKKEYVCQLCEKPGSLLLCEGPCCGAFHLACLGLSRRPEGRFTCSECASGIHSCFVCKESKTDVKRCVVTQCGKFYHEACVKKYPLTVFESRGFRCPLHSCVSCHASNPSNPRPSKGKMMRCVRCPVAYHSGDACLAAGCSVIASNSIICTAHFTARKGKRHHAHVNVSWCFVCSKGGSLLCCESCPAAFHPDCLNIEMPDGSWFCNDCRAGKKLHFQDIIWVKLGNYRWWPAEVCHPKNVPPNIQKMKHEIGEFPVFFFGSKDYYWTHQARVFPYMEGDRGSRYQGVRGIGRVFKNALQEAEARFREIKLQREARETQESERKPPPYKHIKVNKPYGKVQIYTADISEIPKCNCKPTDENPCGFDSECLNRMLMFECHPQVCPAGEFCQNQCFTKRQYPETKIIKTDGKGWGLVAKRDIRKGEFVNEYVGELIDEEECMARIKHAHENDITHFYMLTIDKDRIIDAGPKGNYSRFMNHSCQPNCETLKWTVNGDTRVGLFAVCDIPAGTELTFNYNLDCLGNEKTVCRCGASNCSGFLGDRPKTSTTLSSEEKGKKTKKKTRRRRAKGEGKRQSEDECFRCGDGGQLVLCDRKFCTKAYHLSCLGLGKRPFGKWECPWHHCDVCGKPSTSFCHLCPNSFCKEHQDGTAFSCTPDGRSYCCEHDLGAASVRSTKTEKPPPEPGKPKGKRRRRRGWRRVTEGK

[7] = cells
[8] = viability of uninfected HEp-2 cells – cell-based, HTS, cytotoxicity control for RSV inhibitor project, dose response (AID 2410); assay type: functional; conditions: human respiratory syncytial virus
[9] = tested on: HEK293; test: EBV LMP1 TES2 canonical NF-kB signalling blockers – cell-based, HEK293, luciferase, cherry-pick, dose response (AID 588343); assay type: functional; conditions: Homo sapiens
[10] = biological target: Large T antigen (Simian virus 40, UniProt P03070); assay type: functional, Betapolyomavirus macacae;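 further: Confirmatory-stage PubChem screen for compounds that inhibit SV40 T antigen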
[11] = tested on: H9c2; test: cells; assay type: functional, cell-based; conditions: Rattus norvegicus, H9c2, Myocardium;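 further: confirmatory concentration-response retest of ultra-high-throughput screening hits for modulation of myocardial damage; cell death induced by hydrogen peroxide oxidative stress; compound pretreatment for 60 min then peroxide exposure for 2 h; potency is for protecting the cells against peroxide damage rather than for killing them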
[12] = biological target: T2, Estrogen receptor (Homo sapiens, UniProt P03372);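 further: potency for inhibiting coactivator peptide recruitment to the receptor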
T2 sequence (P03372 whole entry): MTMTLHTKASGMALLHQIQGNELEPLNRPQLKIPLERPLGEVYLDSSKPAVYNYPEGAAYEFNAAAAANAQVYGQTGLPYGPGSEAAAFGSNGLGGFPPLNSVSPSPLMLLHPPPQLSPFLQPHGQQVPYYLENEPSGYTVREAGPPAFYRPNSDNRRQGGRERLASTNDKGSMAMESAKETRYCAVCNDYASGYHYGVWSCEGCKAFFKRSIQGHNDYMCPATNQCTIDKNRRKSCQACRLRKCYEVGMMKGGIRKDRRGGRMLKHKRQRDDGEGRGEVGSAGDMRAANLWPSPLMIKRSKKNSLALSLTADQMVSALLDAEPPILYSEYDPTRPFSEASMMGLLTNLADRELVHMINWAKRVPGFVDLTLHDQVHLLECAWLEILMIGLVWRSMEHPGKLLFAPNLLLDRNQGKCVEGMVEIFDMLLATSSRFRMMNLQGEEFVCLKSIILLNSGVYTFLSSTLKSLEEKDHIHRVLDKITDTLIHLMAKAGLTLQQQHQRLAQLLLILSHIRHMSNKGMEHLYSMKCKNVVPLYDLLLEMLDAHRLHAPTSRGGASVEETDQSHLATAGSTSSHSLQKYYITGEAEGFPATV

[13] = biological target: Estrogen receptor beta (Homo sapiens, UniProt Q92731);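 further: recombinant ER-beta bound to coactivator SRC1 peptide in presence of estradiol agonist; inhibitors block coactivator peptide binding and lower the FRET signal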
[14] = biological target: T3, Rac GTPase-activating protein 1 (Homo sapiens, UniProt Q9H0H5); test: blockers of MgcRacGAP-driven Rac1 GTP hydrolysis – biochemical, ADP Hunter fluorescence, primary and confirmatory, confirmation (AID 624330); assay type: functional
T3 sequence (Q9H0H5 whole entry): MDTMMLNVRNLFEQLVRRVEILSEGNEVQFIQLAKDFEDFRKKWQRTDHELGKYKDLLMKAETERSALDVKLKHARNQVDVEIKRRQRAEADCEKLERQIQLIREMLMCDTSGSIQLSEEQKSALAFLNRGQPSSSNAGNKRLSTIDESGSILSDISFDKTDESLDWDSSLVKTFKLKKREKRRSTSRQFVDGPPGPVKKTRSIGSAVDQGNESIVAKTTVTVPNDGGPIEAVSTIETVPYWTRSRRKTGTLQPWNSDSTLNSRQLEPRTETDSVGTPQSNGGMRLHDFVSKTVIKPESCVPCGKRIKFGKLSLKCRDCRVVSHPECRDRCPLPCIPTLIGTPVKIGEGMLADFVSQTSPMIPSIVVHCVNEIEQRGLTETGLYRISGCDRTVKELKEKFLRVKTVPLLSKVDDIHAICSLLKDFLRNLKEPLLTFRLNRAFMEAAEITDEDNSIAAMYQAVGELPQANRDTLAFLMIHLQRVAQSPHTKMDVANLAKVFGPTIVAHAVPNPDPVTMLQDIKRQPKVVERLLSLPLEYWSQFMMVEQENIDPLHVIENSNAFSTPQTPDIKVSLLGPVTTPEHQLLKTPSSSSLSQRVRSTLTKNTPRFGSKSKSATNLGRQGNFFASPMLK

[15] = intracellular Trypanosoma cruzi inhibitors in host cells – cell-based, plate reader, cherry-pick samples, set 3, dose response (AID 651818); assay type: functional;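 further: compounds incubated with infected cells for about four days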
[16] = blockers of HIV-1 envelope-mediated cell-cell fusion – cherry-pick, dose response (AID 652057); assay type: functional, cell-based
[17] = biological target: T4, Cytochrome P450 1A2 (Homo sapiens, UniProt P05177);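 further: PubChem cytochrome P450 panel assay, CYP1A2 panel member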
T4 sequence (P05177 whole entry): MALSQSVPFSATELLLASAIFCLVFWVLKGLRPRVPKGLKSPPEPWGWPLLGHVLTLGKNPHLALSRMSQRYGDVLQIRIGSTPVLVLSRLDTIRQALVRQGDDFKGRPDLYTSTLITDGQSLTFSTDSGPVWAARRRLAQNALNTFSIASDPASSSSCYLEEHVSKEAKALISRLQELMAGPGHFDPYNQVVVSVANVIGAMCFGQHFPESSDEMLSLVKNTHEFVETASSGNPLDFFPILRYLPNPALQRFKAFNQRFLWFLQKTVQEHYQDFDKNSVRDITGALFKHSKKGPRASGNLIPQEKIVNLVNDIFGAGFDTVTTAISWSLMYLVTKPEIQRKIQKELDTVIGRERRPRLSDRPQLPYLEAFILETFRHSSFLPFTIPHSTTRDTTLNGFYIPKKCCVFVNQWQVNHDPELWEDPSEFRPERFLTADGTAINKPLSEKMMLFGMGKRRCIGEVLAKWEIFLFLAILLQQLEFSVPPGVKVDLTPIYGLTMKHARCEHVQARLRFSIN

[18] = biological target: Cytochrome P450 2C9 (Homo sapiens, UniProt P11712)
[19] = biological target: Cytochrome P450 3A4 (Homo sapiens, UniProt P08684);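 further: CYP3A4 tested as one member of a cytochrome P450 panel screen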
Chain of Cytochrome P450 3A4 (P08684 whole entry): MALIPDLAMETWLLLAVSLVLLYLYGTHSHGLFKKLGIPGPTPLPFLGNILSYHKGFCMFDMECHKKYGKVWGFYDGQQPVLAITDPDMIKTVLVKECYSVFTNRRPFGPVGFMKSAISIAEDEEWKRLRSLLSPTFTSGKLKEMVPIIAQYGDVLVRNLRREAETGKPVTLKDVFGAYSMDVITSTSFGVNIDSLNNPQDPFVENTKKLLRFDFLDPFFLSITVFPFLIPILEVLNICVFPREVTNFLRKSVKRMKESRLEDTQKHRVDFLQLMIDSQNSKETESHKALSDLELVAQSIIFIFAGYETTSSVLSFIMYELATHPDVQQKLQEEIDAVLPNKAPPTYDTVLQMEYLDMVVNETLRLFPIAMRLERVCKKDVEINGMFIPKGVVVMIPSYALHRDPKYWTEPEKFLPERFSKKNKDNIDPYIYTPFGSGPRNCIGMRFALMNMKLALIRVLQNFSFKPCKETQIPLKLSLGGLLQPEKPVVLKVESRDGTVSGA

Chain of Peroxisome proliferator-activated receptor gamma/Nuclear receptor coactivator 3 (P37231 whole entry): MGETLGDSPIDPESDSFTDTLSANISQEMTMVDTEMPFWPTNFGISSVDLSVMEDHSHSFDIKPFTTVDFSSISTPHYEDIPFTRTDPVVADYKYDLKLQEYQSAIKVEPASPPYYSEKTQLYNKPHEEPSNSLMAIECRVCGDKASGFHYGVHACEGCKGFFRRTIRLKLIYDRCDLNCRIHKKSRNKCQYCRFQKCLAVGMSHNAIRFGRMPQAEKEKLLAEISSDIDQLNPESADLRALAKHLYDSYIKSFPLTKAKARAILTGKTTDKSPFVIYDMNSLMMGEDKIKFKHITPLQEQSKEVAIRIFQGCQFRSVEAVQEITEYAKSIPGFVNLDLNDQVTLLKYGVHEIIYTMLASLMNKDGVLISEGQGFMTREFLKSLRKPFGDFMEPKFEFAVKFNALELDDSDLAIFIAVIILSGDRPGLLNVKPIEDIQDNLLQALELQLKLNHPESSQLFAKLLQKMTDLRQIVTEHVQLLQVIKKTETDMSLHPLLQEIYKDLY
Chain of Peroxisome proliferator-activated receptor gamma/Nuclear receptor coactivator 3 (Q9Y6Q9 whole entry, further chain): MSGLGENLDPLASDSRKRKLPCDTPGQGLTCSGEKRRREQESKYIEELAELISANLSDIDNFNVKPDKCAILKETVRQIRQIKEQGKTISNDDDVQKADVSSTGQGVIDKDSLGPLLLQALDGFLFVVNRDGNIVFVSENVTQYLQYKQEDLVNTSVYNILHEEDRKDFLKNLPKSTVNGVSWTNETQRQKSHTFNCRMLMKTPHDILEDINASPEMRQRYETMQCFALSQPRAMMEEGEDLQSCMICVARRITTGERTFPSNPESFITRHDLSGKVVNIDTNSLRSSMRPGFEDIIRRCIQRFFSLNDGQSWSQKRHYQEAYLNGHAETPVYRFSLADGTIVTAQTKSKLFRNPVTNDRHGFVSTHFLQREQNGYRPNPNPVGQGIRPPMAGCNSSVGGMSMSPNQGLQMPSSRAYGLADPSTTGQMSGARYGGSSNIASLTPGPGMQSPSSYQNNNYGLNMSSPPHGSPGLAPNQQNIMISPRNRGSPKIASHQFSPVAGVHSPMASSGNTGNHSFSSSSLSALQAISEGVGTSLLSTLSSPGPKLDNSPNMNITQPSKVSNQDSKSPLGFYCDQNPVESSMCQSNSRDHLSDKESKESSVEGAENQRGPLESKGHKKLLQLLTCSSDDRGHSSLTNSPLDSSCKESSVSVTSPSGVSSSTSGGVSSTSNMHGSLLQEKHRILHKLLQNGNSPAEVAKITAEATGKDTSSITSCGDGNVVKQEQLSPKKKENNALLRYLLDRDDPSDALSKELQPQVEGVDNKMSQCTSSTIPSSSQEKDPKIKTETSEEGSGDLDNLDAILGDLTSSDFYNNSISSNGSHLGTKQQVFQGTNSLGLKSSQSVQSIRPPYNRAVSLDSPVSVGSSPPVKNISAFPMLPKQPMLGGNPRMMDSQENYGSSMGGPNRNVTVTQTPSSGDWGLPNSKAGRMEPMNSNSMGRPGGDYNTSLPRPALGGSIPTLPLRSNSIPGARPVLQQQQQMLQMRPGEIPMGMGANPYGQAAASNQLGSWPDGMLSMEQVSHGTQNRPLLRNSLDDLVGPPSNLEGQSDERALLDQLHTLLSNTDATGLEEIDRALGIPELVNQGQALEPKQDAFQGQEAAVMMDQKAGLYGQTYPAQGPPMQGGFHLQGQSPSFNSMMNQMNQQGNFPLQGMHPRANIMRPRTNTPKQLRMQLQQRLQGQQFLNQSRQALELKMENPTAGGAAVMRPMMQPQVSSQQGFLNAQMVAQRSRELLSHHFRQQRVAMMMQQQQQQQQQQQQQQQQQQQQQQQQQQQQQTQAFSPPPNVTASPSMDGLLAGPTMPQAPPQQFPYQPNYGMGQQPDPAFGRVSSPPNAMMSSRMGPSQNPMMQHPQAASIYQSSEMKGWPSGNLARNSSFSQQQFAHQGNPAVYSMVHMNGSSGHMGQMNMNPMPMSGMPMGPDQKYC
Chain of Peroxisome proliferator-activated receptor gamma/Nuclear receptor coactivator 1 (P37231 whole entry, the tested form may be a part): as the sequence (P37231 whole entry) above
Chain of Peroxisome proliferator-activated receptor gamma/Nuclear receptor coactivator 1 (Q15788 whole entry, further chain, the tested form may be a part): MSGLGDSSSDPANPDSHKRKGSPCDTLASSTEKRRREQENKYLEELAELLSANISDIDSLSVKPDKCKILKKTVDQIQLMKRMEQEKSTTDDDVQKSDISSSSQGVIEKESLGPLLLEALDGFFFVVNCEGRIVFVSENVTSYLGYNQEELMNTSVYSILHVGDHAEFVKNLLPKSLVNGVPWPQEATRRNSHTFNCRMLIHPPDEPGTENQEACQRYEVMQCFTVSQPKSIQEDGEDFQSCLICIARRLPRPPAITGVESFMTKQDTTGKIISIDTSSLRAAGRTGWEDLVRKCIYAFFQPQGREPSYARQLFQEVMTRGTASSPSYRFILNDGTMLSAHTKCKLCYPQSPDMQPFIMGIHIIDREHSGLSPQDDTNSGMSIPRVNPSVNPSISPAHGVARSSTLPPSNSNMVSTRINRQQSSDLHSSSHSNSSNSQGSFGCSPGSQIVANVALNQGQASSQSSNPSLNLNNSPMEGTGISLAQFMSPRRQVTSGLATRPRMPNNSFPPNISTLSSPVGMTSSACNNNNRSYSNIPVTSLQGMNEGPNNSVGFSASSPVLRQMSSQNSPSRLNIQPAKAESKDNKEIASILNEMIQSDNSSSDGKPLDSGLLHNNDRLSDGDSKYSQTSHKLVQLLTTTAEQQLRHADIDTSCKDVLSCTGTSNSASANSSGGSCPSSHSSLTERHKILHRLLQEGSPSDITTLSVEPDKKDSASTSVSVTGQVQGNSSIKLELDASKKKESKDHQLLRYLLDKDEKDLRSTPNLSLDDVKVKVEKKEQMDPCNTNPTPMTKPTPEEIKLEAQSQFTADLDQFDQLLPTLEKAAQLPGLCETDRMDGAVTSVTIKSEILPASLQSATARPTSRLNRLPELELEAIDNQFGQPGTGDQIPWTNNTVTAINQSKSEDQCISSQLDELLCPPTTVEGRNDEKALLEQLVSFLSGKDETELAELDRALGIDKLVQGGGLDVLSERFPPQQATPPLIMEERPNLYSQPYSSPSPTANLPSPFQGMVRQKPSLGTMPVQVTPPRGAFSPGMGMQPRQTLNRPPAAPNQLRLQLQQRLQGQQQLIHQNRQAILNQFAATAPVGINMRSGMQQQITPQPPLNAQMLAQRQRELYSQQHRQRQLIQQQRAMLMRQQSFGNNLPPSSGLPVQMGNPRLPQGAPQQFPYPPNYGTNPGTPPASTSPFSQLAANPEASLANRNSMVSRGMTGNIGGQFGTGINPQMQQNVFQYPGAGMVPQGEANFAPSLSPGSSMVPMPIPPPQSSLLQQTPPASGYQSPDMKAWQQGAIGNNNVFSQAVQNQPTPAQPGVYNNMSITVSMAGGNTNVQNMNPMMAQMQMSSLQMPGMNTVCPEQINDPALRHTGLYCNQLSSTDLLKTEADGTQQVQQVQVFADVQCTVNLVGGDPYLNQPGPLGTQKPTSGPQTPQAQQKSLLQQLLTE
Chain of Large T antigen (P03070 whole entry): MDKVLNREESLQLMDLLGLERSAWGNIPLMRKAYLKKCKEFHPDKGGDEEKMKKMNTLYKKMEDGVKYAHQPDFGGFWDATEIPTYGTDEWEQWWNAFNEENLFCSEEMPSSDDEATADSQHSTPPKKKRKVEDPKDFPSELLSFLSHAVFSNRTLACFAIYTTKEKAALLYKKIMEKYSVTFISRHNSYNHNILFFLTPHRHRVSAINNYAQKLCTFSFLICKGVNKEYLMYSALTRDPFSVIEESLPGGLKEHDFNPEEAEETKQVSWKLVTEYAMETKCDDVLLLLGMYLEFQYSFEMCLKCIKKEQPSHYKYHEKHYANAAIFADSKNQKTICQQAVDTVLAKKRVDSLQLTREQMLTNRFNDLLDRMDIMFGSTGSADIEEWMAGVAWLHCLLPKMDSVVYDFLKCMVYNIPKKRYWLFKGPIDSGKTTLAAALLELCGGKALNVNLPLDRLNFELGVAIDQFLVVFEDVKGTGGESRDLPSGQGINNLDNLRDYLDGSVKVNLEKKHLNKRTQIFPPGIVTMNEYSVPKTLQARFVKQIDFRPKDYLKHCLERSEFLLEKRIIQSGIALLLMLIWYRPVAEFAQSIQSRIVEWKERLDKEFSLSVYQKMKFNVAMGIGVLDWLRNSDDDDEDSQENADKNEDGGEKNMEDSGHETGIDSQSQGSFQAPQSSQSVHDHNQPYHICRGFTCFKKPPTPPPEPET

- EC50 [1]: 39.5 µM (not active)
- EC50 [2]: 4.14 µM (active)
- EC50 [3]: 3.68 µM (active)
SMILES: COc1c(C)cccc1C(=O)NC(=S)Nc1cccc2nsnc12

SMILES: Cc1ccc(S(=O)(=O)N(C)c2ccc(C(=O)N3CCN(Cc4ccc5c(c4)OCO5)CC3)cc2)cc1
- AC50 [4]: 14 µM (active)

- EC50 [1]: 81.4 µM (not active)
- EC50 [2]: 32 µM (not active)
- EC50 [3]: > 79.4 µM (inactive)
SMILES: CCOc1ccc(NC(=O)CSc2ncnc3c2sc2ccccc23)cc1

SMILES: CN1CCN(C(=S)c2ccc([N+](=O)[O-])cc2)CC1
- IC50 [5]: > 80 µM (inactive)

- AC50 [6]: > 20 µM (inactive)
SMILES: CCN(CC)CCCN(Cc1cc2cc(OC)c(OC)cc2nc1O)C(=O)Nc1ccccc1

- EC50 [1]: > 79.4 µM (not active)
- EC50 [2]: 7.94 µM (active)
- EC50 [3]: 3.27 µM (active)
SMILES: CSc1cnn(Cc2ccccc2)c(=O)c1SCc1ccccc1

SMILES: COc1ccccc1Nc1nc(-c2cccc([N+](=O)[O-])c2)cs1
- IC50 [7]: 12.3 µM (active)
- CC50 [8]: 25.1 µM (active)

SMILES: COc1ccc(-c2cc3c(=O)n(CC(=O)NCCCN4CCN(Cc5ccccc5)CC4)ncn3n2)cc1
- AC50 [9]: 2.22 µM (active)

SMILES: CC(C)c1ccc(S(=O)(=O)N2CCN(CC(=O)c3ccc(O)c(O)c3)CC2)cc1
- AC50 [6]: 4.68 µM (active)
- IC50 [10]: 23.6 µM (active)
- IC50 [11]: > 79 µM (inactive)

- EC50 [1]: > 79.4 µM (not active)
- EC50 [2]: > 79.4 µM (not active)
- EC50 [3]: > 79.4 µM (inactive)
SMILES: CCn1c(=O)cc(SCC(=O)NCCN2CCN(Cc3ccccc3)CC2)c2ccccc21

SMILES: Cc1[nH]c(C)c(S(=O)(=O)N2CCN(c3cccc(Cl)c3)CC2)c1C(=O)N1CCCCC1
- IC50 [7]: 31.5 µM (active)
- CC50 [8]: 29.3 µM (active)

SMILES: Cc1[nH]c2ccc(-c3nnc(SCC(=O)c4ccccc4F)o3)cc2c1C
- IC50 [7]: 40.7 µM (active)
- CC50 [8]: 32.8 µM (active)
- IC50 [12]: 26 µM (active)

- IC50 [13]: > 50 µM (not active)
SMILES: CN1CC2(C)CN(C(c3ccccc3)c3ccccc3)CC(C)(C1)C2O (stereo not given)

- AC50 [6]: 0.747 µM (active)
- IC50 [14]: 42.9 µM (active)
SMILES: CN(C)c1ccc2cc(S(=O)(=O)O)cc(O)c2c1

SMILES: C[C@@H]1CN([C@@H](C)CO)C(=O)c2cccc(NC(=O)CCCCCC(=O)Nc3ccccc3N)c2O[C@H]1CN(C)Cc1ccc2c(c1)OCO2
- AC50 [15]: 2.58 µM (active)

SMILES: C[C@H](CO)N1C[C@H](C)[C@H](CN(C)Cc2ccc(C(=O)Nc3ccccc3N)cc2)Oc2ccc(NC(=O)Cc3ccccc3)cc2CC1=O
- AC50 [15]: 2.95 µM (active)

SMILES: C[C@H](CO)N1C[C@H](C)[C@@H](CN(C)Cc2ccncc2)Oc2c(NC(=O)C3CCOCC3)cccc2C1=O
- AC50 [15]: 20 µM (inactive)

SMILES: Cc1ccc(S(=O)(=O)Nc2cccc3c2O[C@@H](CN(C)S(=O)(=O)c2ccc(Cl)cc2)[C@@H](C)CN([C@H](C)CO)C3=O)cc1
- AC50 [15]: 8.14 µM (active)

SMILES: C[C@@H]1CN([C@@H](C)CO)C(=O)c2cccc(NC(=O)Nc3ccc(C(F)(F)F)cc3)c2O[C@@H]1CN(C)S(=O)(=O)c1ccc(F)cc1
- AC50 [15]: 4.16 µM (active)

SMILES: O=C(C[C@@H]1CC[C@H]2[C@@H](COC[C@@H](O)CN2C(=O)c2ccc(F)cc2)O1)NC1Cc2ccccc2C1
- AC50 [4]: 3.86 µM (active)
- AC50 [16]: 1.62 µM (active)

SMILES: CC(=N)/C(C#N)=C(/O)COc1ncnc2ccc(Br)cc12
- IC50 [7]: 1.14 µM (active)
- AC50 [17]: 0.0316 µM (inconclusive)
- AC50 [18]: 11.2 µM (inconclusive)
- AC50 [19]: 17.8 µM (inconclusive)
